What all share (type): biochemical
The target in experiment [1] is T1, CgNal (Corynebacterium glutamicum, UniProt Q8NMD2).
T1 construct: gene Cgl2646; full length 312 aa (939 bp ORF), pET-28a(+), N-terminal His6-tag, E. coli Rosetta (DE3) pLysS, ~33 kDa, Ni-NTA; NAL family homotetramer
As to the kind of experiment: HPLC of substrates and products, Neu5Ac synthesis. As to conditions: 0.1 M Tris-HCl pH 7.5, assay at 37 °C, synthesis direction. An excerpt: HPLC of substrates and products, Neu5Ac synthesis on CgNal

In another experiment the target is T2, EcDHDPS (Escherichia coli, UniProt P0A6L2).
T2 construct: gene dapA; dapA amplified from E. coli genomic DNA into pET-28a(+), expressed in E. coli Rosetta, Ni-NTA
T2 sequence (P0A6L2 1-292): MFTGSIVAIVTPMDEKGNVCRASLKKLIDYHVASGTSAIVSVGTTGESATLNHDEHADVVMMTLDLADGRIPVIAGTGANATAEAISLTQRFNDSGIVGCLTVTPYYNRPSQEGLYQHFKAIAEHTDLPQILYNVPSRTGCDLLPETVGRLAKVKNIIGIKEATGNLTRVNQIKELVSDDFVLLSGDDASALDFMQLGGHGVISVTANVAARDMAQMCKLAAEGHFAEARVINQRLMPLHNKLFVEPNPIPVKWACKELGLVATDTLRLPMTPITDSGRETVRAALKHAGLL
Briefly: coupled enzymatic assay (Yugari and Gilvarg). As to conditions: co-substrate pyruvate.

Experiment [2] concerns the target T1, CgNal. As to the kind of experiment: HPLC of substrates and products, Neu5Ac cleavage. As to conditions: read-out: Neu5Ac Cleavage / Neu5Ac / Km; 0.1 M Tris-HCl pH 7.5, assay at 37 °C; cleavage direction. An excerpt:
HPLC of substrates and products, Neu5Ac cleavage on CgNal

T1 sequence (Q8NMD2 entry or part of it): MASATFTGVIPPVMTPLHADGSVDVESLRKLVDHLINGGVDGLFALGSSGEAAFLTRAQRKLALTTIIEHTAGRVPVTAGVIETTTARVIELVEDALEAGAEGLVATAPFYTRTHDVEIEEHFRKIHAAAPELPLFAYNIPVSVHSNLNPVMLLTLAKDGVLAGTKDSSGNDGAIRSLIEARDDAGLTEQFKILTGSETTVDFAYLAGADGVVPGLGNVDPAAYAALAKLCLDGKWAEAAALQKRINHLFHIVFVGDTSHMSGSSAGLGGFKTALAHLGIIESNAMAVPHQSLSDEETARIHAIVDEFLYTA

Take `CC(=O)N[C@@H]1C(O)O[C@H](CO)[C@@H](O)[C@@H]1O` (stereo partly shown) [ManNAc]: the Km at CgNal [1] (read-out: Neu5Ac Synthesis / ManNAc / Km, pyruvate fixed at 100 mM) came to 53.3 mM.
As to `N[C@@H](CC=O)C(=O)O` [ASA], the “coupled enzymatic assay (Yugari and Gilvarg)” value on EcDHDPS is “Using ASA as substrate, CgNal showed only half the activity of EcDHDPS”.
`CC(=O)C(=O)O` [pyruvate]: the Km on CgNal [1] (read-out: Neu5Ac Synthesis / Pyruvate / Km, ManNAc fixed at 50 mM) was found to be 14.7 mM.
In the case of `CC(=O)N[C@H]1[C@H]([C@H](O)[C@H](O)CO)OC(O)(C(=O)O)C[C@@H]1O` (stereo partly shown) [Neu5Ac], the Km at CgNal [2] turned out to be 33.5 mM.

(Values after publication PMC5380162, “Characterization of a novel N-acetylneuraminic acid lyase favoring N-acetylneuraminic acid synthesis” (Scientific Reports, 2015).)
